This note sets out measurements from ChEMBL document CHEMBL1157539, “Thousands of chemical starting points for antimalarial lead identification” (Nature, 2010).

The subject of this experiment is Plasmodium falciparum. Kind of experiment: GSK_TCMDC: Inhibition of Plasmodium falciparum 3D7 in whole erythrocytes, using parasite LDH activity as an index of growth. Type of experiment: functional, organism-based. Particulars: Plasmodium falciparum, 3D7.
On to `COc1ccc(CN(C)C(=O)CCNS(=O)(=O)c2ccc3c(c2)OCCCO3)cc1F`, for which the XC50 was 656 nM.

As to `OC(CNc1ccnc(Nc2cccc(CCN3CCOCC3)c2)n1)c1ccccc1` (centres undefined), the XC50 turned out to be 594 nM.

`Cc1cc(=NN=Cc2ccccc2Cl)c2cccc(C)c2[nH]1` had an XC50 of 705 nM.

For the compound `O=C(/C=C/c1ccc(Cl)c(Cl)c1)NCCCCCN1CC[C@H](NC(=O)/C=C/c2ccccc2)C1`, the XC50 is 1000 nM.

The compound `c1ccc(Oc2ccc(Nc3ccnc4cc(-c5csc(CN6CCCCC6)n5)ccc34)cc2)nc1` gave an XC50 of 579 nM.

Consider `Cc1cccc2c(CON3C(N)=NC(N)=NC3(C)C)cccc12`, for which the XC50 was 3.2 nM.

For `O=C(NC1CCC(CN2CCC(c3c[nH]c4ccccc34)CC2)CC1)c1cc(-c2ccccc2Cl)oc1C(F)(F)F` (centres undefined), the XC50 is 771 nM.

Compound `CC(C)NCc1cccc(-c2cccc(NC(=O)c3cccc(C#N)c3)c2)c1` showed an XC50 of 823 nM.

For `O=C(Nc1ccc2c(c1)CCC2)c1ccc(CN2CCCN(Cc3cccc(O)c3)CC2)cc1`, the XC50 was 894 nM.

For the compound `COc1ccc2nc(C)cc(NC3Cc4ccccc4C3)c2c1`, the XC50 is 839 nM.

In turn, `COc1ccc(CCn2c(=N)c(C(=O)NCc3ccc(C)cc3)cc3c(=O)n4ccccc4nc32)cc1` displayed an XC50 of 1130 nM.

With `CS(=O)(=O)CCNCc1ccc(-c2ccc3c(Nc4ccc(Oc5ccccn5)cc4)ccnc3c2)o1`, the XC50 was 715 nM.

Compound `COc1cccc(C(=O)C2CC2CN(C)CCC(O)c2ccc(Cl)c(Cl)c2)c1` (centres undefined) registered an XC50 of 756 nM.

Compound `COc1ccc(-c2cccc(NC(=O)c3ccccc3)c2)cc1CN1CCCN(C)CC1` had an XC50 of 733 nM.

In the case of `CN(C)Cc1ccc(-c2cc3c(-c4ccc(CN(C)C)cc4)ccnc3[nH]2)cc1`, the XC50 stood at 887 nM.

In turn, `COc1ccc(Nc2c3ccc(Cl)cc3nc3ccc(OC)cc23)cc1` registered an XC50 of 441 nM.

On to `Cc1cc2c(/C=C/C(=O)NC3CCC(CCN4CCc5ccc(C#N)cc5CC4)CC3)cccc2[nH]1` (centres undefined), for which the XC50 was 840 nM.

Turning to `C#CCOc1ccccc1CN1CCC(N2CCc3cc(NC(=O)c4cc(C)on4)ccc32)C1` (centres undefined), the XC50 amounted to 675 nM.

Turning to `CC[C@H]1CN2CC[C@@H]1C[C@H]2[C@H](O)c1ccnc2ccc(Cl)cc12`, the XC50 worked out at 119 nM.

The compound `COc1cccc(CCN(Cc2ccccc2-c2ccc(CNC3CC(C)(C)NC(C)(C)C3)cc2)C(=O)NC2CCCCC2)c1` showed an XC50 of 932 nM.

Compound `COc1cccc(-c2ccc(C(=O)NC3CCN(Cc4ccc(C(C)(C)C)cc4)CC3)s2)c1` came in with an XC50 of 1600 nM.

`CCCc1cc(N2CCC(N3CCCC3)CC2)nc(Nc2ccc(OC)cc2)n1` displayed an XC50 of 807 nM.

In turn, `CC1CCCC(Nc2noc(-c3sccc3Br)n2)C1` (centres undefined) registered an XC50 of 689 nM.

The compound `COc1ccc(C2CCN(CCCCNC(=O)c3ccc(NC(=O)c4ccc(Cl)cc4)cc3)CC2)c(OC)c1` displayed an XC50 of 570 nM.

In turn, `CCC(CC)(Cc1ccccc1)NC(=O)[C@H](CC1CCCCC1)Nc1ccc(C#N)c2ccccc12` yielded an XC50 of 634 nM.

Take `NC(=O)c1ccccc1Nc1nc(Nc2ccc(N3CCOCC3)cc2)ncc1[N+](=O)[O-]`: the XC50 is 881 nM.

On to `CN1CCN(c2cccc(NC(=O)c3ccc(-c4ccc(C#N)cc4)cc3)c2)CC1`, for which the XC50 was determined as 1260 nM.

The compound `CCOc1c(CNCCCCCCNCc2ccc3ccccc3c2OCC)ccc2ccccc12` came in with an XC50 of 759 nM.

On to `Cn1cccc1C(=O)C(=O)Nc1ccc(-c2ccc(-c3nc4cc(F)ccc4[nH]3)cc2)cc1`, for which the XC50 amounted to 838 nM.

For the compound `COc1ccc(-c2cccc(CNCc3ccc(F)cc3)c2)cc1S(=O)(=O)NCCN1CCCC1`, the XC50 came to 1850 nM.

Compound `CCOc1ccc(C(=O)Nc2ccc(-c3nc4ccccc4[nH]3)cc2)cc1[N+](=O)[O-]` gave an XC50 of 591 nM.

`O=c1cc(NCCCNC2CCOc3c(I)cc(Cl)cc32)[nH]c2ccccc12` (centres undefined) returned an XC50 of 832 nM.

As for `CCOc1ccc2[nH]c(C)cc(=NN=Cc3ccncc3)c2c1`, the XC50 turned out to be 991 nM.

The compound `Clc1ccc(Nc2nc(Nc3ccc(Cl)c(Cl)c3)nc(Sc3nc4ccccc4[nH]3)n2)cc1Cl` registered an XC50 of 490 nM.

With `O=C(C=CC(=O)N1CCCCC1)NCc1ccccc1`, the XC50 was determined as 732 nM.

Regarding `COc1ccc(Br)cc1/C=C/C(=O)Nc1cccc(C2CCCN(C)C2)c1` (centres undefined), the XC50 worked out at 892 nM.

`CNC(=O)c1cc(Nc2nnc(-c3ccc(C)c(S(=O)(=O)NC4CCCCC4)c3)c3ccccc23)ccc1OC` returned an XC50 of 904 nM.

As to `Cc1noc(=O)c2ccc(NC(=O)C(O)(CSc3ccccc3)CC(C)C)cc12` (centres undefined), the XC50 was 722 nM.

Compound `O=C(/C=C/c1ccc(Cl)c(Cl)c1)NCCCCCN1CCC(NC(=O)NC2CCCCCC2)CC1` came in with an XC50 of 464 nM.

For `CCCCc1ccc(C(=O)NC2CCN(C[C@H](O)c3ccnc4ccc(OC)cc34)CC2)cc1`, the XC50 stood at 728 nM.

The compound `O=C(Nc1ccsc1)Nc1cccc(-c2cccc(-c3nc4cc(C(F)(F)F)ccc4[nH]3)c2)c1` had an XC50 of 150 nM.

Regarding `COc1ccc2cc(C(c3nnnn3CC3CCCO3)N3CCc4ccccc43)c(=O)[nH]c2c1` (centres undefined), the XC50 worked out at 795 nM.

In turn, `c1ccc(-c2nc3ccccc3[nH]2)c(Nc2ccnc3cc(-c4nccs4)ccc23)c1` yielded an XC50 of 740 nM.

Regarding `CCCCN(Cc1cccc(C(F)(F)F)c1Cl)c1ccc(C(O)(C(F)(F)F)C(F)(F)F)cc1`, the XC50 was found to be 960 nM.

Compound `Cc1cc(N2CCCC2)nc(Nc2ccc(NC(=O)CC(C)C)cc2)n1` came in with an XC50 of 841 nM.

For `COC(=O)c1ccc(CC(C)NCC(O)c2ccccc2Cl)cc1` (centres undefined), the XC50 was 1010 nM.

The compound `Cc1nc(NCCCn2ccnc2)cc(-c2cncc(-c3ccc(OC(F)(F)F)cc3)c2)n1` returned an XC50 of 616 nM.

As to `Nc1nc(N)c2c(Cl)c(N3CCOCC3)ccc2n1`, the XC50 is 76.9 nM.

`CCN(CC)CCCC(C)Nc1c(-c2ccc(C)cc2)cnc2ccccc12` (centres undefined) came in with an XC50 of 200 nM.

As to `Cc1ccc(C(=O)Cn2nc(-c3ccc(C)c(S(=O)(=O)N4CCCC4)c3)ccc2=O)cc1`, the XC50 amounted to 513 nM.

With `O=C(Nc1cccc(CN2CCCN(Cc3ccccc3)CC2)c1)c1cc2ccccc2s1`, the XC50 was found to be 1200 nM.

Consider `Clc1ccc2c(NCCNc3ccnc4cc(Cl)ccc34)ccnc2c1`, for which the XC50 was determined as 396 nM.

Take `COc1ccc(CN2CCC(C(=O)Nc3cccc(-c4cccc(Cl)c4)c3)CC2)cc1O`: the XC50 came to 975 nM.

As for `O=C(Nc1cccc(CN2CCCN(Cc3ccccc3)CC2)c1)c1ccc(Cl)c(Cl)c1`, the XC50 came to 896 nM.

Take `Cc1cccc(CNc2nc(C)cc(NCCC(=O)Nc3ccccc3)n2)c1`: the XC50 was found to be 1050 nM.

Take `CCOc1cc(C(=O)Nc2cccnc2)ccc1-c1nc2cc(Cl)c(Cl)cc2[nH]1`: the XC50 was 1010 nM.

On to `Oc1ccc(Cl)cc1-c1cc(C(F)(F)F)nc(-c2ccccc2)n1`, for which the XC50 came to 753 nM.

For the compound `CN1CCC(C(=O)Nc2ccc(-c3cccc(-c4nc5cc(F)ccc5[nH]4)c3)cc2)CC1`, the XC50 came out at 792 nM.

In the case of `CC(C)CNCc1ccc(-c2ccc(CNC3CCN(Cc4ccccc4)CC3)cc2)cc1`, the XC50 is 558 nM.

Consider `COc1ccc(CNC(=N)Nc2nc(-c3ccc(OCCCn4ccnc4)cc3)cs2)cc1`, for which the XC50 was determined as 393 nM.

As to `COc1ccccc1C1CCN(C2CCC(NC(=O)/C=C/c3ccc(OC(F)(F)F)cc3)CC2)CC1` (centres undefined), the XC50 worked out at 1350 nM.

As to `CC(NC(=O)c1ccc(O)c(-c2ccc(Cl)c(Cl)c2)c1)C(=O)NC1CCCCC1` (centres undefined), the XC50 stood at 844 nM.

As to `CC(C)Cc1cn(-c2nc(C(=N)N)cs2)c2cc(Cl)ccc12`, the XC50 came out at 154 nM.

Regarding `Cc1cccc(C)c1CNc1cccc(-c2nc(C)c(C)[nH]2)c1`, the XC50 was determined as 883 nM.
